The nature of this series: Ames test. Type of series: cell-based. A general note: The Ames test uses bacterial strains that need an amino acid and regain growth without it when mutated back.

Here are results for one compound from patent US7285678B2, “Purification of 2-nitro-4-methylsulphonylbenzoic acid” (Syngenta Limited, priority 2001, dated 2007).

With `CS(=O)(=O)c1ccc(C(=O)C2C(=O)CCCC2=O)c([N+](=O)[O-])c1` [Mesotrione, 2-(4-methylsulfonyl-2-nitrobenzoyl)cyclohexane-1,3-dione], the Ames test entry by setting is: (Mesotrione made from NMSBA purified by Example 1 (one pot: filtration, activated carbon, hydrolysis at pH 13, crystallization)) “negative”; (Mesotrione made from NMSBA purified by Example 3 (20, 30 and 40% solids loading)) “negative”. In addition, the Ames test response entry by setting is: (Mesotrione made from NMSBA purified by Example 2, both fractions (with carbon and without carbon)) “negative”; (Mesotrione made from NMSBA purified by Example 4 double isolation, fractions (A) and (B)) “negative”. Also, the Ames test result (mesotrione made by the known process from NMSBA starting material containing impurities (not purified)) was “positive”.
